Converted amounts (≈) assume the structure as drawn. The source made the active and inactive calls. The calls are words filed in the database; no cut-off is given here.
Assays:
[1] = Volume of distribution in mouse at 3 mg/kg, iv; type: ADME, organism-based; details: in vivo
[2] = Oral bioavailability in mouse at 10 mg/kg; type: ADME, organism-based; details: in vivo
[3] = test system: Plasmodium falciparum; assay: microbe, parasite or virus in culture; details: NF54, 72 h
[4] = Cytotoxicity against CHO cells measured after 48 hrs by MTT assay; details: Chinese hamster
[5] = AUC(0 to infinity) in mouse at 3 mg/kg, iv; type: ADME, organism-based; set-up: dose 3 mg/kg, route iv; details: in vivo
[6] = Apparent half life in mouse at 50 mg/kg, po; type: ADME, organism-based; details: in vivo, read-out: t1/2(app) (converted)
[7] = Cmax in mouse at 10 mg/kg, po; type: ADME, organism-based; set-up: dose 10 mg/kg, route po; details: in vivo
[8] = Tmax in mouse at 10 mg/kg, po; type: ADME, organism-based; details: in vivo
[9] = test system: Plasmodium falciparum; assay: Antiplasmodial activity against multidrug resistant Plasmodium falciparum K1 incubated for 72 hrs by microplate reader assay; type: functional, organism-based; details: K1, 72 h
[10] = Cmax in mouse at 50 mg/kg, po; type: ADME, organism-based; set-up: dose 50 mg/kg, route po; details: in vivo
[11] = Apparent half life in mouse at 3 mg/kg, iv; type: ADME, organism-based; details: in vivo, read-out: t1/2(app) (converted)
[12] = Tmax in mouse at 50 mg/kg, po; type: ADME, organism-based; details: in vivo
[13] = Intrinsic clearance in mouse at 3 mg/kg, iv; type: ADME, organism-based; details: in vivo
[14] = Oral bioavailability in mouse at 50 mg/kg; type: ADME, organism-based; details: in vivo
[15] = Apparent half life in mouse at 10 mg/kg, po; type: ADME, organism-based; details: in vivo, read-out: t1/2(app) (converted)
[16] = AUC(0 to infinity) in mouse at 50 mg/kg, po; type: ADME, organism-based; set-up: dose 50 mg/kg, route po; details: in vivo
[17] = AUC(0 to infinity) in mouse at 10 mg/kg, po; type: ADME, organism-based; set-up: dose 10 mg/kg, route po; details: in vivo
[18] = physchem; details: buffer, pH 7.4
[19] = Selectivity index, ratio of IC50 for Plasmodium falciparum NF54 to IC50 for CHO cells; details: hamster
[20] = test system: Plasmodium berghei; assay: Antiplasmodial activity against Plasmodium berghei ANKA infected in mouse assessed as reduction in parasitemia at 50 mg/kg, po administered for 4 days; type: functional; set-up: scale not given: the % may be the effect or the level left; details: time 4 day
[21] = test system: Plasmodium falciparum; assay: Antiplasmodial activity against Plasmodium falciparum assessed as reduction in parasite viability incubated for 72 hrs by LDH assay; type: functional, organism-based
[22] = test system: HepG2; assay: Cytotoxicity against human HepG2 cells after 48 hrs by CellTiter Glo assay; type: toxicity, cell-based; details: hepg2, 48 h
[23] = test system: Plasmodium berghei; assay: Antiplasmodial activity against liver stage Plasmodium berghei ANKA sporozoites expressing GFP infected in HepG2 cells pre-infected with cells for 1 hr prior to compound addition and measured after 48 hrs by flow cytometry analysis
[24] = test system: Plasmodium falciparum; assay: Antiplasmodial activity against early stage (I to III) Plasmodium falciparum incubated for 48 hrs by bioluminescence assay; type: functional, organism-based
[25] = test system: Plasmodium berghei; assay: Antiplasmodial activity against Plasmodium berghei ANKA infected in mouse assessed as mean survival days at 50 mg/kg, po administered for 4 days and measured upto 30 days; type: functional; details: time 4 day
[26] = test system: Hemozoin; assay: Inhibition of Beta-hematin in Plasmodium falciparum NF54 assessed as hemozoin formation after 36 hrs by flow cytometry analysis
[27] = Drug accumulation in neutral lipid droplets of human erythrocytes infected with chloroquine sensitive Plasmodium falciparum NF54 by live cell imaging analysis; type: ADME, cell-based; details: erythrocyte
[28] = test system: Plasmodium falciparum; assay: Antiplasmodial activity against chloroquine sensitive Plasmodium falciparum NF54 infected in human erythrocytes incubated for 48 hrs followed by addition of [3H]-hypoxanthine and measured after 24 hrs by beta-plate liquid scintillation counting method; type: functional, organism-based
[29] = test system: Plasmodium falciparum; assay: Antiplasmodial activity against multidrug resistant Plasmodium falciparum K1 infected in human erythrocytes incubated for 48 hrs followed by addition of [3H]-hypoxanthine and measured after 24 hrs by beta-plate liquid scintillation counting method; type: functional, organism-based
[30] = Drug accumulation in lysosomes of human erythrocytes infected with chloroquine sensitive Plasmodium falciparum NF54 by live cell imaging analysis; type: ADME, cell-based; details: erythrocyte
[31] = Drug accumulation in hemozoin crystal of human erythrocytes infected with chloroquine sensitive Plasmodium falciparum NF54 by live cell imaging analysis; type: ADME, cell-based; details: erythrocyte
[32] = Drug accumulation in endoplasmic reticulum of human erythrocytes infected with chloroquine sensitive Plasmodium falciparum NF54 by live cell imaging analysis; type: ADME, subcellular; details: erythrocyte
[33] = Drug accumulation in nucleus of human erythrocytes infected with chloroquine sensitive Plasmodium falciparum NF54 by live cell imaging analysis; type: ADME, subcellular; details: erythrocyte
[34] = Drug accumulation in mitochondria of human erythrocytes infected with chloroquine sensitive Plasmodium falciparum NF54 by live cell imaging analysis; type: ADME; details: erythrocyte

Structure (SMILES)	Vd [1] [L/kg]	bioavailability [2] [%]	IC50 [3] [nM]	AUC [5] [µM/min]	half-life [6] [h]	Cmax [7] [nM]	Tmax [8] [h]	IC50 [9] [nM]	Cmax [10] [nM]	half-life [11] [h]	Tmax [12] [h]	CL [13] [mL/min/kg]	bioavailability [14] [%]	half-life [15] [h]	AUC [16] [µM/min]	AUC [17] [µM/min]	solubility kinetic at 2 h [18] [µM]	Activity [20] [%]	Activity [22]	IC50 at 48 h ([4]; cho) [nM]	also measured
Cc1noc(-c2ccc(CCN3CCC(Nc4nc5ccccc5[nH]4)CC3)cc2)n1	13.6	29.3	55	550	9.2	1000	1.5	176	5900	11.6	3	16.6	61	10.3	5548	535	80 (≈ 32.2 µg/mL)	40			IC50 at 48 h ([4]; CHO cells): 3560 nM; selectivity ratio [19]: 64.7
COc1ccc(CCN2CCC(Nc3nc4cc(Cl)c(Cl)cc4[nH]3)CC2)cc1																					IC50 [21]: 83 nM
Cn1c(NC2CCN(CCc3ccc(-c4nc(C(F)(F)F)no4)cc3)CC2)nc2ccccc21			66					48										90	Non-Toxic	3180	IC50 [23]: 210 nM; IC50 [24]: 1670 nM; MSD [25]: 9 days
FC(F)(F)c1noc(-c2ccc(CCN3CCC(Nc4nc5ccccc5[nH]4)CC3)cc2)n1	26.6	15.6		93.4	10.2	300	0.7		1500	4.2	1.7	71.7	93.3	1.1	1429	48			Non-Toxic	1960	inhibition [26]: inactive; MSD [25]: 14 days
O=[N+]([O-])c1ccc(NCCn2c(NC3CCN(CCc4ccc(-c5nc(C(F)(F)F)no5)cc4)CC3)nc3ccccc32)c2nonc12																	120 (≈ 79.5 µg/mL)				Drug uptake [27]: Active; IC50 [28]: 140 nM; IC50 [29]: 370 nM; Drug uptake [30]: Active; Drug uptake [31]: Active; Drug uptake [32]: Active; Drug uptake [33]: Not Active; Drug uptake [34]: Active

Source: ChEMBL document CHEMBL5236628 (J Med Chem, 2022)
